These results are taken from ChEMBL document CHEMBL5370531, “Design, synthesis and pharmacological evaluation of 2,3-dihydrobenzofuran IRAK4 inhibitors for the treatment of diffuse large B-cell lymphoma” (Eur J Med Chem, 2023).

For data set [1], the target named is T1, Interleukin-1 receptor-associated kinase 4 (Homo sapiens, UniProt Q9NWZ3).
T1 sequence (Q9NWZ3 whole entry): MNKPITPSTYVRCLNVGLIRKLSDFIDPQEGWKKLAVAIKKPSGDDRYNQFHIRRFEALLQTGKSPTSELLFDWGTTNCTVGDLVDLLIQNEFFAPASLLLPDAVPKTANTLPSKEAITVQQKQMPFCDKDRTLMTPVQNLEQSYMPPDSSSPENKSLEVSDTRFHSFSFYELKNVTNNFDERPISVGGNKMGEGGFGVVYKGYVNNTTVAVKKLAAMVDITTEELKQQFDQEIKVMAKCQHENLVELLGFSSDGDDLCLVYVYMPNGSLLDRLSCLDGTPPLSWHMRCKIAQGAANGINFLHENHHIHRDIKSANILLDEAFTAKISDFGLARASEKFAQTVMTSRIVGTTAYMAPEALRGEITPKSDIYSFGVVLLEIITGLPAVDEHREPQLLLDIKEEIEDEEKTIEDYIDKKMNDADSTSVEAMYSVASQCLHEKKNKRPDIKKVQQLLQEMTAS
Description: Inhibition of IRAK4 (unknown origin) by Z-LYTE enzymatic kinase assay.

For data set [2], the system named is OCI-Ly10. Put plainly: Cytotoxicity against human OCILY10 cells assessed as inhibition of cell proliferation incubated for 72 hrs by CCK-8 assay. It counts as functional, cell-based. To be noted: OCI-Ly10, 72 h.
For data set [3], the system named is U2932. Put plainly: Cytotoxicity against human U2932 cells assessed as inhibition of cell proliferation incubated for 72 hrs by CCK-8 assay. It counts as functional, cell-based. The note with it: U2932, 72 h.
Data set [4] can be described thus: Cytotoxicity against human GM00637 cells assessed as inhibition of cell proliferation incubated for 72 hrs by CCK-8 assay. It counts as toxicity, cell-based.

With `CC1(C)Cc2cc(NC(=O)c3coc(-c4ccnc(N)c4)n3)c(N3CCN(CC(N)=O)CC3)cc2O1`, in data set [1], the concentration for half-maximal inhibition (IC50) stood at 11.6 nM.
The same measure, in the same setting: as for `CC1(C)Cc2cc(NC(=O)c3coc(-c4ccnc(N)c4)n3)c(-c3ccc(C#N)nc3)cc2O1`, the figure is 42.1 nM; as for `CC(=O)Nc1cc(-c2nc(C(=O)Nc3cc4c(cc3N3CCC(CO)CC3)OC(C)(C)C4)co2)ccn1`, 62.7 nM.
`CC1(C)Cc2cc(NC(=O)c3cccc(-c4ccnc(N)c4)n3)c(N3CCC(CO)CC3)cc2O1` gave an IC50 in data set [1] of over 100 nM.
Consider `CC1(C)Cc2cc(NC(=O)c3coc(-c4ccnc(N)c4)n3)c(N3CCC(C(C)(C)O)CC3)cc2O1`, for which, in data set [1], the 50% inhibitory concentration (IC50) stood at 60.9 nM.
On the same count and under the same terms, as for `CC1(C)Cc2cc(NC(=O)c3coc(-c4ccnc(N)c4)n3)c(N3CCC(CN)CC3)cc2O1`, the figure is 14 nM.
As for `CC1(C)Cc2cc(NC(=O)c3coc(-c4ccnc(N)c4)n3)c(-c3cncnc3)cc2O1`, the IC50 in data set [1] is 12.7 nM; in data set [2], 669 nM; in data set [3], 2090 nM. In addition, in data set [4], the IC50 at 72 h was found to be 4630 nM.
Compound `CC(C)n1cc(-c2cc3c(cc2NC(=O)c2coc(-c4ccnc(N)c4)n2)CC(C)(C)O3)cn1` gave a half-inhibitory concentration (IC50) in data set [1] of 24.7 nM.
On the same count and under the same terms, as for `CC1(C)Cc2cc(NC(=O)c3cccc(-c4ccc(N)nc4)n3)c(N3CCC(CO)CC3)cc2O1`, the figure is over 100 nM.
Same read-out and setting: as for `Cc1cc(-c2cc3c(cc2NC(=O)c2coc(-c4ccnc(N)c4)n2)CC(C)(C)O3)ccn1`, the figure is 30.3 nM.
On to `Cc1ncc(-c2cc3c(cc2NC(=O)c2coc(-c4ccnc(N)c4)n2)CC(C)(C)O3)cn1`, for which the IC50 in data set [1] is 14 nM; in data set [2], 823 nM; in data set [3], 5180 nM. Moreover, the IC50 at 72 h in data set [4] is over 50000 nM.
For the compound `Cc1cc(-c2nc(C(=O)Nc3cc4c(cc3N3CCC(CO)CC3)OC(C)(C)C4)co2)ccn1`, the IC50 in data set [1] is over 100 nM.
Same read-out and setting: next, `Cc1noc(C)c1-c1cc2c(cc1NC(=O)c1coc(-c3ccnc(N)c3)n1)CC(C)(C)O2`: over 100 nM; `COc1ccc(-c2cc3c(cc2NC(=O)c2coc(-c4ccnc(N)c4)n2)CC(C)(C)O3)cn1`: 26.8 nM.
The same measure, in the same setting: as for `COc1cc(-c2cc3c(cc2NC(=O)c2coc(-c4ccnc(N)c4)n2)CC(C)(C)O3)ccn1`, the figure is 22.8 nM.
Same read-out and setting: as for `CC1(C)Cc2cc(NC(=O)c3coc(-c4ccnc(N)c4)n3)c(N3CCC(O)CC3)cc2O1`, the figure is 32.7 nM; as for `CC1(C)Cc2cc(NC(=O)c3cnn4cccnc34)c(N3CCOCC3)cc2O1`, 6.1 nM; as for `CC1(C)Cc2cc(NC(=O)c3coc(N4CC[C@@H](N)C4)n3)c(N3CCC(CO)CC3)cc2O1`, 65.9 nM.
Turning to `Cc1ccc(-c2cc3c(cc2NC(=O)c2coc(-c4ccnc(N)c4)n2)CC(C)(C)O3)cn1`, the results for the IC50 in data set [1], in data set [2] and in data set [3] were 12.8 nM, 3160 nM and over 50000 nM, respectively. The half-inhibitory concentration (IC50) at 72 h in data set [4] was over 50000 nM.
For `CC1(C)Cc2cc(NC(=O)c3coc(-c4ccnc(N)c4)n3)c(-c3ccoc3)cc2O1`, the half-maximal inhibitory concentration (IC50) in data set [1] stood at 10.2 nM; in data set [2], 401 nM; in data set [3] it was 2450 nM. For the same compound, in data set [4], the concentration for half-maximal inhibition (IC50) at 72 h is over 50000 nM.
For the compound `CC1(C)Cc2cc(NC(=O)c3coc(-c4ccncc4)n3)c(N3CCC(CO)CC3)cc2O1`, inhibition in data set [1] was half-maximal at 22.1 nM (IC50).
On to `CC1(C)Cc2cc(NC(=O)c3cnn4cccnc34)c(N3CCC(CO)CC3)cc2O1`, for which the IC50 came to 2.9 nM in data set [1] and 12400 nM in data set [2].
In data set [1], `CC1(C)Cc2cc(NC(=O)c3coc(-c4ccnc(N)c4)n3)c(-c3ccnc(C#N)c3)cc2O1` showed a half-maximal inhibitory concentration (IC50) of over 100 nM.
Still for that read-out and setting: next, `CC1(C)Cc2cc(NC(=O)c3coc(N4CCC[C@@H](N)C4)n3)c(N3CCC(CO)CC3)cc2O1`: over 100 nM; `Cc1cc(-c2cc3c(cc2NC(=O)c2coc(-c4ccnc(N)c4)n2)CC(C)(C)O3)cc(C)n1`: over 100 nM; `CC1(C)Cc2cc(NC(=O)c3coc(-c4ccnc(N)c4)n3)c(-c3ccc(C(F)(F)F)nc3)cc2O1`: 25.3 nM.
`CC1(C)Cc2cc(NC(=O)c3coc(-c4ccnc(N)c4)n3)c(N3CCN(CCO)CC3)cc2O1`: the IC50 in data set [1] is 7.4 nM.
`CC1(C)Cc2cc(NC(=O)c3cccc(N4CCC[C@@H](N)C4)n3)c(N3CCC(CO)CC3)cc2O1` returned an IC50 in data set [1] of over 100 nM.
Still for that read-out and setting: next, `CCn1cc(-c2cc3c(cc2NC(=O)c2coc(-c4ccnc(N)c4)n2)CC(C)(C)O3)cn1`: 18.5 nM.
In the case of `CC1(C)Cc2cc(NC(=O)c3coc(-c4ccnc(N)c4)n3)c(N3CCOCC3)cc2O1`, the concentration for half-maximal inhibition (IC50) in data set [1] came out at 2.6 nM; in data set [2] it was 109 nM; in data set [3], 181 nM. The IC50 at 72 h in data set [4] was 312 nM.
As to `Cn1cc(-c2cccc(C(=O)Nc3cc4c(cc3N3CCC(CO)CC3)OC(C)(C)C4)n2)cn1`, half-maximal inhibition in data set [1] (IC50) was put at 73.8 nM.
`CC1(C)Cc2cc(NC(=O)c3cccc(N4CC[C@@H](N)C4)n3)c(N3CCC(CO)CC3)cc2O1` registered an IC50 in data set [1] of over 100 nM.
`CC1(C)Cc2cc(NC(=O)c3coc(-c4ccnc(N)c4)n3)c(N3CCC(C(N)=O)CC3)cc2O1` showed an IC50 in data set [1] of 28.5 nM.
`CC1(C)Cc2cc(NC(=O)c3coc(-c4ccnc(N)c4)n3)c(N3CCC(CO)CC3)cc2O1`: the IC50 in data set [1] came to 2.1 nM; in data set [2] it was 336 nM.
The compound `CC1(C)Cc2cc(NC(=O)c3coc(-c4ccnc(N)c4)n3)c(-c3ccnc(C(F)(F)F)c3)cc2O1` returned a half-inhibitory concentration (IC50) in data set [1] of over 100 nM.
